Article PMC8048568, “Synthesis of σ Receptor Ligands with a Spirocyclic System Connected with a Tetrahydroisoquinoline Moiety via Different Linkers” (Chemmedchem, 2021)
Where two headings read alike, the source gives them in different places.

Key:
σ1 receptor [1] = target: σ1 receptor (Cavia porcellus, UniProt Q60492); assay: σ1 receptor competitive radioligand binding assay with [3H]-(+)-pentazocine; conditions: for Ki: K i [nM]±SEM σ1, [3H]-(+)-pentazocine, guinea pig brain homogenate, mean of 3 experiments; for inhibition at 1 µM: read-out: inhibition of the radioligand, σ1
Chain of σ1 receptor (Cavia porcellus, UniProt Q60492) (Q60492 whole entry): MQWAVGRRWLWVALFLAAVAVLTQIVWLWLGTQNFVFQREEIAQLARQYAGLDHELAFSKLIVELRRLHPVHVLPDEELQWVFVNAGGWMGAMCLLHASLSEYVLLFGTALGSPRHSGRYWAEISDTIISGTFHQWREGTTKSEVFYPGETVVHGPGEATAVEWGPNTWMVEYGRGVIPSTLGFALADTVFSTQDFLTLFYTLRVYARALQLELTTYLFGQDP

σ2 receptor = target: T1, σ2 receptor (Rattus norvegicus, UniProt Q5U3Y7); assay: σ2 receptor competitive radioligand binding assay with [3H]DTG, σ1 masked with (+)-pentazocine; conditions: for Ki: K i [nM]±SEM σ2, [3H]DTG, rat liver homogenate, mean of 3 experiments; for inhibition at 1 µM: read-out: inhibition of the radioligand, σ2, 1 μM of the test compound; for inhibition at 1 µM / inhibition of the radioligand, σ2: [3H]DTG, rat liver; for inhibition of the radioligand, σ2: 1 μM of the test compound, 1 µM
T1 sequence (Q5U3Y7 1-176): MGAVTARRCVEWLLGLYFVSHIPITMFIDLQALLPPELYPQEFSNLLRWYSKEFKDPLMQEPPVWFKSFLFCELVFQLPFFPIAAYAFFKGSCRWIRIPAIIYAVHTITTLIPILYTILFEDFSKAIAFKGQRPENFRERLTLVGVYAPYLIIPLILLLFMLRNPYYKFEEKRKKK

σ1 receptor [2] = conditions: cited from earlier work

Ki (σ1 receptor [1]) | Ki (σ2 receptor) | SMILES | further results
712 nM | 2100 nM | COc1cc2c(cc1OC)CN(CCCC(=O)NC1CCC3(CC1)OC(OC)Cc1ccccc13)CC2 (stereo not drawn) [cis‐27, cis‐4‐(6,7‐Dimethoxy‐3,4‐dihydroisoquinolin‐2(1H)‐yl)‐N‐(3‐methoxy‐3,4‐dihydrospiro[[2]benzopyran‐1,1′‐cyclohexan]‐4′‐yl)butanamide] | –
251 nM | 200 nM | COc1cc2c(cc1OC)CN(CCNC1CCC3(CC1)OC(OC)Cc1ccccc13)CC2 (stereo not drawn) [cis‐31, cis‐N‐[2‐(6,7‐Dimethoxy‐3,4‐dihydroisoquinolin‐2(1H)‐yl)ethyl]‐3‐methoxy‐3,4‐dihydrospiro[[2]benzopyran‐1,1′‐cyclohexan]‐4′‐amine] | –
– | – | COc1cc2c(cc1OC)CN(C(=O)CN1CCC3(CC1)OC(OC)c1ccccc13)CC2 (centres unmarked) [Compound 23, 1‐(6,7‐Dimethoxy‐3,4‐dihydroisoquinolin‐2(1H)‐yl)‐2‐{3‐methoxy‐3H‐spiro[[2]benzofuran‐1,4′‐piperidin]‐1′‐yl}ethan‐1‐one] | inhibition at 1 µM (σ1 receptor [1]): 0%; inhibition at 1 µM (σ2 receptor): 0%
– | – | COc1cc2c(cc1OC)CN(C(=O)CNC1CCC3(CC1)OC(OC)c1ccccc13)CC2 (stereo not drawn) [trans‐24, trans‐1‐(6,7‐Dimethoxy‐3,4‐dihydroisoquinolin‐2(1H)‐yl)‐2‐[N‐(3‐methoxy‐3H‐spiro[[2]benzofuran‐1,1′‐cyclohexan]‐4′‐yl)amino]ethan‐1‐one] | inhibition at 1 µM (σ1 receptor [1]): 15%; inhibition of the radioligand, σ2 (σ2 receptor): 0%
518 nM | 534 nM | COc1cc2c(cc1OC)CN(CC(=O)N1CCC3(CC1)OC(OC)Cc1ccccc13)CC2 (centres unmarked) [Compound 25, 2‐(6,7‐Dimethoxy‐3,4‐dihydroisoquinolin‐2(1H)‐yl)‐1‐(3‐methoxy‐3,4‐dihydrospiro[[2]benzopyran‐1,4′‐piperidin]‐1′‐yl)ethan‐1‐one] | –
1400 nM | 499 nM | COc1cc2c(cc1OC)CN(CCNC1CCC3(CC1)OC(OC)Cc1ccccc13)CC2 (stereo not drawn) [trans‐31, trans‐N‐[2‐(6,7‐Dimethoxy‐3,4‐dihydroisoquinolin‐2(1H)‐yl)ethyl]‐3‐methoxy‐3,4‐dihydrospiro[[2]benzopyran‐1,1′‐cyclohexan]‐4′‐amine] | –
1300 nM | 1900 nM | COc1cc2c(cc1OC)CN(CC(=O)NC1CCC3(CC1)OC(OC)c1ccccc13)CC2 (stereo not drawn) [trans‐29, trans‐2‐(6,7‐Dimethoxy‐3,4‐dihydroisoquinolin‐2(1H)‐yl)‐N‐(3‐methoxy‐3H‐spiro[[2]benzofuran‐1,1′‐cyclohexan]‐4′‐yl)acetamide] | –
1000 nM | 371 nM | COc1cc2c(cc1OC)CN(CC(=O)NC1CCC3(CC1)OC(OC)Cc1ccccc13)CC2 (stereo not drawn) [cis‐26, cis‐2‐(6,7‐Dimethoxy‐3,4‐dihydroisoquinolin‐2(1H)‐yl)‐N‐(3‐methoxy‐3,4‐dihydrospiro[[2]benzopyran‐1,1′‐cyclohexan]‐4′‐yl)acetamide] | –
– | – | Fc1ccc(-n2cc(CCCCN3CCC4(CC3)OCc3ccccc34)c3ccccc32)cc1 [siramesine] | Ki (σ1 receptor [2]; read-out: K i σ1 receptor): 17 nM
– | 3400 nM | COc1cc2c(cc1OC)CN(CC(=O)N1CCC3(CC1)OC(OC)c1ccccc13)CC2 (centres unmarked) [Compound 28, 2‐(6,7‐Dimethoxy‐3,4‐dihydroisoquinolin‐2(1H)‐yl)‐1‐{3‐methoxy‐3H‐spiro[[2]benzofuran‐1,4′‐piperidin]‐1′‐yl}ethan‐1‐one] | inhibition at 1 µM (σ1 receptor [1]): 19%
1600 nM | – | COc1cc2c(cc1OC)CN(C(=O)CNC1CCC3(CC1)OC(OC)c1ccccc13)CC2 (stereo not drawn) [cis‐24, cis‐1‐(6,7‐Dimethoxy‐3,4‐dihydroisoquinolin‐2(1H)‐yl)‐2‐[N‐(3‐methoxy‐3H‐spiro[[2]benzofuran‐1,1′‐cyclohexan]‐4′‐yl)amino]ethan‐1‐one] | inhibition of the radioligand, σ2 (σ2 receptor): 9%
– | – | COc1cc2c(cc1OC)CN(CC(=O)NC1CCC3(CC1)OC(OC)Cc1ccccc13)CC2 (stereo not drawn) [trans‐26, trans‐2‐(6,7‐Dimethoxy‐3,4‐dihydroisoquinolin‐2(1H)‐yl)‐N‐(3‐methoxy‐3,4‐dihydrospiro[[2]benzopyran‐1,1′‐cyclohexan]‐4′‐yl)acetamide] | inhibition at 1 µM (σ1 receptor [1]): 7%; inhibition at 1 µM (σ2 receptor): 4%
740 nM | – | COc1cc2c(cc1OC)CN(C(=O)CNC1CCC3(CC1)OC(OC)Cc1ccccc13)CC2 (stereo not drawn) [cis‐22, cis‐1‐(6,7‐Dimethoxy‐3,4‐dihydroisoquinolin‐2(1H)‐yl)‐2‐[N‐(3‐methoxy‐3,4‐dihydrospiro[[2]benzopyran‐1,1′‐cyclohexan]‐4′‐yl)amino]ethan‐1‐one] | inhibition at 1 µM (σ2 receptor): 11%
129 nM | – | COc1cc2c(cc1OC)CN(CC(=O)NC1CCC3(CC1)OC(OC)c1ccccc13)CC2 (stereo not drawn) [cis‐29, cis‐2‐(6,7‐Dimethoxy‐3,4‐dihydroisoquinolin‐2(1H)‐yl)‐N‐(3‐methoxy‐3H‐spiro[[2]benzofuran‐1,1′‐cyclohexan]‐4′‐yl)acetamide] | inhibition at 1 µM (σ2 receptor): 0%

SMILES | Ki (σ1 receptor [1]) | Ki (σ2 receptor) | further results
COc1cc2c(cc1OC)CN(C(=O)CN1CCC3(CC1)OC(OC)Cc1ccccc13)CC2 (centres unmarked) [Compound 21, 1‐(6,7‐Dimethoxy‐3,4‐dihydroisoquinolin‐2(1H)‐yl)‐2‐{3‐methoxy‐3,4‐dihydrospiro[[2]benzopyran‐1,4′‐piperidin]‐1′‐yl}ethan‐1‐one] | 319 nM | – | inhibition at 1 µM (σ2 receptor): 19%
COc1cc2c(cc1OC)CN(CCN1CCC3(CC1)OC(OC)Cc1ccccc13)CC2 (centres unmarked) [Compound 30, 1′‐[2‐(6,7‐Dimethoxy‐3,4‐dihydroisoquinolin‐2(1H)‐yl)ethyl]‐3‐methoxy‐3,4‐dihydrospiro[[2]benzopyran‐1,4′‐piperidine]] | 608 nM | 348 nM | –
